{"source": "paper PMC5308240", "about": "“A Novel Toxin from Haplopelma lividum Selectively Inhibits the NaV1.8 Channel and Possesses Potent Analgesic Efficacy” (Toxins, 2016)", "key": {"mice [1]": {"tested_on": "mice", "experiment": "Formalin-induced paw licking", "conditions": "mouse, in vivo, ip", "protocol": "A formalin test was performed according to the method described by Owoyele et al.. Mice were intraperitoneally (i.p.) injected with test samples dissolved in 100 μL of saline and positive control animals were intraperitoneally injected with morphine dissolved in saline. The control group received the same volume of saline. Animals were injected with 20 μL of 5% formalin at the plantar surface of right hind paw after intraperitoneally injected with test samples. They were then placed into open polyvinyl cages (20 cm × 40 cm × 15 cm) individually. The time spent for licking the injected paw by each mouse was recorded by a digital video camera (early phase or neurogenic pain, 0–15 min post-injection and late phase or inflammatory pain, 15–30 min post-injection).\n(§1) The results are expressed as the mean ± standard error of the mean (SEM). Statistical significance was calculated using one- or two-way analysis of variance followed by the Student-Newman-Keuls and Bonferroni’s post hoc tests. Significance was defined as p < 0.05."}, "mice [2]": {"tested_on": "mice", "experiment": "Hot plate test", "conditions": "mouse, in vivo", "protocol": "A hot plate apparatus (model HZ66-ZH-YLS-6B, Shanghai, China), maintained at 55 ± 1 °C, was used to test the pain in response to a thermal stimulus. Mice in the control condition showing initial nociceptive responses between 5 and 10 s were selected for the experiment. The latency to the sign of hind paw licking or jumping to avoid heat nociception was taken as the index of the nociceptive threshold. […] A group of mice treated with morphine dissolved in physiological saline was used as a positive control.\nas §1"}, "mice [3]": {"tested_on": "mice", "experiment": "Tail-flicking test", "conditions": "mouse, in vivo, ip", "protocol": "Mice with pain threshold of 4–6 s were selected for the tail-flicking test. […] A photothermal pain detector (YLS-12A, Jinan, Shandong, China) was used to measure the pain threshold of mice subjected to intense heat and the light beam of the detector was focused on the middle of mouse tail. All of the animals were intraperitoneally injected with saline containing different concentrations of samples and control group received the same volume of saline. Tail withdrawal latency was measured as the time taken to withdraw the tail from the light beam.\nas §1"}}, "note": "Where “and” joins values, the source holds several entries; their conditions need not be identical. Equal entries are not always repeated.", "data": [{"molecule": "CN1CC[C@]23c4c5ccc(O)c4O[C@H]2[C@@H](O)C=C[C@H]3[C@H]1C5", "note": "[morphine]", "values": [{"measurement": "paw licking time, early phase", "setting": "mice [1]", "value": "94 s and 71 s and 60 s"}, {"measurement": "paw licking time, late phase", "setting": "mice [1]", "value": "421 s and 275 s and 211 s"}, {"measurement": "hot plate latency", "setting": "mice [2]", "value": "12.5 s and 14.3 s and 18.6 s"}, {"measurement": "tail withdrawal latency", "setting": "mice [3]", "value": "6.8 s and 8.9 s and 11.3 s"}]}]}
